Laboratory results reported in patent US5013722A, “Cholecystokinin analogs for controlling appetite” (Hoffmann-LaRoche Inc., priority 1989, dated 1991).

What was measured:
[1] = tested on: Male Sprague-Dawley (CD) rats, food intake; assay: Two-meal feeding assay, intraperitoneal administration; assay type: in vivo, rat; settings: 32 microgm/Kg i.p., mean ± SEM
Experimental: (§1) Male Sprague-Dawley (CD) rats weighing 180-200 grams (Charles River Breeding Laboratories) were acclimated to a 12 h light/dark cycle (6 a.m. to 6 p.m.) in a room kept at 22° C. They were subsequently fasted for two days, weighed, placed in individual cages, and a four-day period of meal training was begun. During this time the rats were given ground laboratory chow (Purina Lab Chow) in jars for one hour from 9:00 a.m. until 10:00 a.m., the jars were removed from 10:00 a.m. to 12:00 p.m., and placed back in the cages from 12:00 until 1:00 p.m. Under this `1-2-1` meal feeding regime most rats learn to eat approximately as much Per day during the two hours they have access to food as rats which have food ad libitum over the entire 24-hour day. On the fourth day, the rats were weighed again, and any which lost more than five grams body weight were excluded from the test. The animals were then distributed into experimental (n=5 to 6) and control groups (n=6-12). but not matched for body weight.
Peptides of the invention were suspended either in saline. if soluble, or in 1% gum arabic, if insoluble, at concentrations of 0 to 320 μg/ml/kg body weight and were administered intraperitonerally 15 min before the first meal on day 5 of meal feeding. The rats were then given their meals as they had been during the previous four days, and the food cups were weighed both before and after each meal to determine food consumption. Food intake was expressed as a mean and standard error of the mean in grams consumed or as a percent of control values for the various groups. The treated groups were compared to the control groups by t-test analysis. […]

[2] = target: T1, receptors in rat pancreas (3H-CCK-8-(SO3 H) binding) (Rattus norvegicus, UniProt P30551); assay: In vitro receptor binding assay, rat pancreas homogenate, 3H-CCK-8-(SO3H) radioligand; settings: rat pancreas vs bovine striatum
T1 construct: receptors in homogenized preparations of rat pancreatic cells and bovine striata; from tissue; host or cells: rat pancreas homogenate (48,000 x g pellet)
T1 sequence (P30551 1-444): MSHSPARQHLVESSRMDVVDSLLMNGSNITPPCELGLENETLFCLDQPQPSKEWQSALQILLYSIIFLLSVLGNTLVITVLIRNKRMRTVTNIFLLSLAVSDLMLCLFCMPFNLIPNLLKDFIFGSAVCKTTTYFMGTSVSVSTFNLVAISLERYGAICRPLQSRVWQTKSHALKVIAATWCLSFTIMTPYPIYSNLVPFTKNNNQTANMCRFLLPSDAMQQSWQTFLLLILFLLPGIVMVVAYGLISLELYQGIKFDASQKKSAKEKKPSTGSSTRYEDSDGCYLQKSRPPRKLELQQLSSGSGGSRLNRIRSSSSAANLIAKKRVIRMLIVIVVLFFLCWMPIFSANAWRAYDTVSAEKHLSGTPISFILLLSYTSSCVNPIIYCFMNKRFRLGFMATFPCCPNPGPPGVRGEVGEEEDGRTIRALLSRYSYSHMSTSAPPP
Experimental: This strategy was utilized to minimize central nervous system side effects by identifying peptides with peripheral receptor selectivity. […] The tissue was homogenized 2 x for approx. 15 sec. at 0° C. using a Polytron homogenizer at a setting of 6. The tissue was isolated by centrifugation at 48,000 x g for 10 min. at 0° C. […] Samples were incubated for 30 min. at 25° C. and the incubation terminated by pouring the mixture onto a pre-wet Whatman GF/B filter on a Sandbeck Vacuum Filtration Manifold. The incubation tubes were washed with 2×3 ml of ice-cold HEPES Buffer #2 and the wash filtered through the GF/B filter. The filter was air dried for 10 min. and then placed in a scintillation vial with 12 ml of Beckman HP/b Ready-Solv scintillation cocktail. The vials were shaken for 2 hours and then counted using a Beckman Model 7800 liquid scintillation spectrometer.

[3] = target: T2, Rat kidney metalloendopeptidase (Rattus norvegicus, UniProt P07861); assay: Degradation by rat kidney metalloendopeptidase (HPLC); assay type: in vitro ADME; settings: for % Degradation by Height: 37° C., pH 7.6
T2 construct: from tissue; host or cells: rat kidney
T2 sequence (P07861 1-750): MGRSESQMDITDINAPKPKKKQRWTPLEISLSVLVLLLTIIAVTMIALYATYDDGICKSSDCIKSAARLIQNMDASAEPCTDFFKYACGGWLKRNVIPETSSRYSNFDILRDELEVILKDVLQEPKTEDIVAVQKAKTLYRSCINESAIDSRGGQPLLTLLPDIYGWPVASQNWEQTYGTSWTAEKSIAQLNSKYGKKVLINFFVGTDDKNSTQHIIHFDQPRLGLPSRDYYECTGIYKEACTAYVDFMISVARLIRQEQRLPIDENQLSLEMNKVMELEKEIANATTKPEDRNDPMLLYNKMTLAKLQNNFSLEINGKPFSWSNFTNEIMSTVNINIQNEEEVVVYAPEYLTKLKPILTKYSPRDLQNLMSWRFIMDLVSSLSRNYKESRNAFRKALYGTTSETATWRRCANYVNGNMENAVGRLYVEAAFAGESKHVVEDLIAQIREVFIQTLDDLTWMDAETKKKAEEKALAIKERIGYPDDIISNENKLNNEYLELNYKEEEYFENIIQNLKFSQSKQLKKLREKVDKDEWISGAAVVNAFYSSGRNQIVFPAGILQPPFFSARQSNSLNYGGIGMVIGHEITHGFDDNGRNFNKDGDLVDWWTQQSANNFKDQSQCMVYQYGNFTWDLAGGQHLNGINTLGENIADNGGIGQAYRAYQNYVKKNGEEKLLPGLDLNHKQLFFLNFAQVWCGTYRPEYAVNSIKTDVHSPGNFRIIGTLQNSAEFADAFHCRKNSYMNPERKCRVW
Experimental: Rat kidney metalloendopeptidase (0.01 μg) and 5 nmol of peptide were incubated in 2 μmol tris-HCl buffer (pH 7.6) and at 37° C. for varying periods of time. The degradation of the peptide was monitored by analytical HPLC on a 5 micron Adsorbosphere-ODS column with a 0-50% CH3 CN gradient in 0.1N potassium phosphate, pH 3.0, with UV detection at 210 nm. Rates are based on presumed production of Asp-Tyr(SO3 H)-Met-Gly for CCK-8 and the presumed production of Ac-Tyr(SO3 H)-Met-Gly for Example 2 and 3.

Male rats, food intake = assay: Two-meal feeding assay, intranasal administration; assay type: in vivo, rat
Experimental: as §1
Male rats were meal trained as described in Example 9. The peptide of Example 2 was dissolved in saline and was administered to the rats intranasally. CCK-8, dissolved in saline was used as a control.

[4] = tested on: lean and obese men, food intake; settings: cited from earlier work
[5] = 1000 μg/kg intranasal, saline = 100

% Degradation by Height ([3]; incubation 0 min): 0% | % Degradation by Height ([3]; incubation 15 min): 6.2% | % Degradation by Height ([3]; incubation 30 min): 33.2% | No. of Peaks (degradation products) ([3]; incubation 60 min): 4 | % Degradation by Height ([3]; incubation 60 min): 69.7%
Compound: CSCC[C@H](NC(=O)[C@H](Cc1ccc(OS(=O)(=O)O)cc1)NC(=O)[C@@H](N)CC(=O)O)C(=O)NCC(=O)N[C@@H](Cc1c[nH]c2ccccc12)C(=O)N[C@@H](CCSC)C(=O)N[C@@H](CC(=O)O)C(=O)N[C@@H](Cc1ccccc1)C(N)=O [CCK-8, Asp--Tyr(SO3 H)--Met--Gly--Trp--Met--Asp--Phe--NH2, reference compound]
Food Intake 1st Meal ([1]; 15 min before first meal): 27 ± 17 % of Control | Food Intake 2nd Meal [1]: 149 ± 6 % of Control | Binding selectivity, receptor sites in pancreas versus brain [2]: binds to receptor sites in the pancreas and brain | Food Intake (activity in words) (Male rats, food intake; 400 μg/kg intranasal): Inactive | Food Intake 1st meal Grams consumed (Male rats, food intake; 1000 μg/kg intranasal): 4.9 ± 0.7 Grams | Food Intake 2nd meal Grams consumed (Male rats, food intake; 1000 μg/kg intranasal): 6.3 ± 05 Grams | Food Intake 1st meal (%) (Male rats, food intake; [5]): 66% | Food Intake 2nd meal (%) (Male rats, food intake; [5]): 112% | Food intake after infusion [4]: decrease food intake in lean and obese men
